Consider 18 compounds from ChEMBL document CHEMBL1148691, “Inhibitors of hepatitis C virus NS3.4A protease. Effect of P4 capping groups on inhibitory potency and pharmacokinetics” (Bioorg Med Chem Lett, 2007).

The test system of one series is Plasma. Nature of the series: Drug level in CD1 mouse plasma at 50 mg/kg, po. Format: ADME, organism-based. The settings on record: in vivo. More on the design: dose 50 mg/kg, route oral.
A short description of series [1]: Cytotoxicity against Huh7 cells by MTS assay. The settings on record: human. Format: cell-based, Huh-7.
The subject of another series is Hepatitis C virus. Nature of the series: Inhibition of HCV replicon RNA production in HUh7 cells. The settings on record: Huh-7. Format: functional, organism-based, Hepacivirus hominis. On the technique in general: Replicon systems follow genome replication, usually without infectious particles.
A short description of series [2]: Inhibition of HCV NS3 4A protease. More on the design: species or system Hepacivirus hominis.
The subject of series [3] is Mus musculus. Nature of the series: AUC(0 to 8 hrs) in CD1 mouse plasma at 50 mg/kg, po. The conditions noted are these: in vivo, 6 h. Further details: dose 50 mg/kg, route oral. Format: ADME, organism-based.
For series [4], the system named is Mus musculus. The experiment in a line: AUC(0 to 8 hrs) in CD1 mouse liver at 50 mg/kg, po. Format: ADME, organism-based. Further details: dose 50 mg/kg, route oral. The settings on record: in vivo, 6 h.
Another series relates to Liver. The experiment in a line: Drug level in CD1 mouse liver at 50 mg/kg, po. Format: ADME, organism-based. More on the design: dose 50 mg/kg, route oral. The conditions noted are these: in vivo, read-out: Activity.
The nature of series [5]: Selectivity index, ratio of CC50 for Huh7cells to IC50 for HCV. The format is functional.
A short description of series [6]: Ratio of drug level in CD1 mouse liver to IC50 for HCV. Format: functional, tissue-based.

The CC50 is the concentration that lowers cell viability or growth by half. A lower CC50 goes with greater toxicity to the cells. The IC50 is the point on the concentration scale where inhibition reaches its midpoint. A lower IC50 goes with inhibition by little substance. Usually Ki stands for a measure of affinity in units of concentration, obtained from inhibition or displacement. Read a low Ki as higher affinity. The AUC is the area under the concentration-time curve, a measure of exposure. Read a high AUC as more exposure.

Molecules are shown by their SMILES. Bounds are passed on as bounds.

Regarding `CCC[C@H](NC(=O)[C@@H]1C[C@@H]2CCCC[C@@H]2N1C(=O)[C@@H](NC(=O)[C@@H](NC(=O)c1nccn1C)C1CCCCC1)C(C)(C)C)C(=O)C(=O)NC1CC1`, the concentration in the series on Plasma came out at 170 nM; in the series with Liver, 260 nM. Also, in series [1], the cytotoxic concentration (CC50) was above 100000 nM. The compound further displayed an IC50 with Hepatitis C virus above 3000 nM. In series [2], the Ki was found to be 1200 nM. For the same compound, the exposure (AUC) amounted to 1.3 µM·h with Mus musculus [3] and 2.1 µM·h in the series on Mus musculus [4].
Regarding `CCC[C@H](NC(=O)[C@@H]1C[C@@H]2CCCC[C@@H]2N1C(=O)[C@@H](NC(=O)[C@@H](NC(=O)c1ncc[nH]1)C1CCCCC1)C(C)(C)C)C(=O)C(=O)NC1CC1`, the concentration in the series on Plasma stood at 10 nM; in the series on Liver it was 60 nM. For the same compound, the Selectivity index in series [5] is above 442. Moreover, the 50% cytotoxic concentration (CC50) in series [1] was above 100000 nM. Moreover, the IC50 in the series on Hepatitis C virus stood at 230 nM. The compound further displayed an inhibition constant Ki in [2] of 120 nM. The figures for the AUC in the series with Mus musculus [3] and with Mus musculus [4] were 0.05 µM·h and 0.47 µM·h, respectively. Moreover, the Ratio in [6] is 0.26.
Regarding `CCC[C@H](NC(=O)[C@@H]1[C@H]2CCC[C@H]2CN1C(=O)[C@@H](NC(=O)[C@@H](NC(=O)c1ncc[nH]1)C1CCCCC1)C(C)(C)C)C(=O)C(=O)NC1CC1`, the concentration in the series on Plasma is 40 nM; with Liver, 1300 nM. In the series on Hepatitis C virus, inhibition was half-maximal at 200 nM (IC50). This compound showed a Ki in [2] of 30 nM. Moreover, the area under the curve (AUC) with Mus musculus [3] was determined as 0.36 µM·h; in the series with Mus musculus [4], 10.5 µM·h. In series [6], the Ratio worked out at 52.
For `CCC[C@H](NC(=O)[C@@H]1C[C@@H]2CCCC[C@@H]2N1C(=O)[C@@H](NC(=O)[C@@H](NC(=O)C1(O)CCCC1)C1CCCCC1)C(C)(C)C)C(=O)C(=O)NC1CC1`, the Selectivity index in series [5] is above 64. The compound further displayed a 50% cytotoxic concentration (CC50) in series [1] above 100000 nM. The compound further had a concentration for half-maximal inhibition (IC50) with Hepatitis C virus of 1600 nM. In series [2], this compound yielded an inhibition constant (Ki) of 640 nM.
The corresponding values for `CCC[C@H](NC(=O)[C@@H]1C[C@@H]2CCCC[C@@H]2N1C(=O)[C@@H](NC(=O)[C@@H](NC(=O)C(=O)NC1CC1)C1CCCCC1)C(C)(C)C)C(=O)C(=O)NC1CC1` are above 375, above 100000 nM, 270 nM and 110 nM.
For `CCC[C@H](NC(=O)[C@@H]1C[C@@H]2CCCC[C@@H]2N1C(=O)[C@@H](NC(=O)[C@@H](NC(=O)c1cnc2ccccc2n1)C1CCCCC1)C(C)(C)C)C(=O)C(=O)NC1CC1`, in that order: above 81, above 100000 nM, 1200 nM and 440 nM.
Turning to `CCC[C@H](NC(=O)[C@@H]1C[C@@H]2CCCC[C@@H]2N1C(=O)[C@@H](NC(=O)[C@@H](NC(=O)c1cc([N+](=O)[O-])c[nH]1)C1CCCCC1)C(C)(C)C)C(=O)C(=O)NC1CC1`, the Selectivity index in series [5] is above 270. In series [1], this compound gave a half-maximal cytotoxic concentration (CC50) above 100000 nM. This compound showed an IC50 with Hepatitis C virus of 370 nM. In series [2], this compound had an inhibition constant (Ki) of 50 nM. In the series with Mus musculus [4], this compound displayed an AUC of 0.06 µM·h. Further, the concentration in the series on Liver worked out at 10 nM. Moreover, the Ratio in [6] came to 0.03.
On to `CCC[C@H](NC(=O)[C@@H]1C[C@@H]2CCCC[C@@H]2N1C(=O)[C@@H](NC(=O)[C@@H](NC(=O)C(=O)NC(C)C)C1CCCCC1)C(C)(C)C)C(=O)C(=O)NC1CC1`, for which the Selectivity index in series [5] is above 249. In addition, the 50% cytotoxic concentration (CC50) in series [1] is above 100000 nM. This compound also gave a concentration for half-maximal inhibition (IC50) with Hepatitis C virus of 400 nM. Moreover, in series [2], the Ki worked out at 160 nM.
The corresponding values for `CCC[C@H](NC(=O)[C@@H]1C[C@@H]2CCCC[C@@H]2N1C(=O)[C@@H](NC(=O)[C@@H](NC(=O)c1ccccn1)C1CCCCC1)C(C)(C)C)C(=O)C(=O)NC1CC1` are above 52, above 100000 nM, 1900 nM and 520 nM.
For the compound `CCC[C@H](NC(=O)[C@@H]1[C@H]2CCC[C@H]2CN1C(=O)[C@@H](NC(=O)[C@@H](NC(=O)c1cnccn1)C1CCCCC1)C(C)(C)C)C(=O)C(=O)NC1CC1`, the concentration in the series on Plasma worked out at 370 nM; in the series on Liver it was 2400 nM. Also, the Selectivity index in series [5] worked out at 230. The compound also displayed a CC50 in series [1] of 82000 nM. For the same compound, the IC50 with Hepatitis C virus was 350 nM. This compound also returned a Ki in [2] of 40 nM. The AUC with Mus musculus [3] stood at 3 µM·h; in the series on Mus musculus [4] it was 19 µM·h. The Ratio in series [6] is 54.
Regarding `CCC[C@H](NC(=O)[C@@H]1C[C@@H]2CCCC[C@@H]2N1C(=O)[C@@H](NC(=O)[C@@H](NC(=O)[C@@H]1Cc2ccccc2N1)C1CCCCC1)C(C)(C)C)C(=O)C(=O)NC1CC1`, in [5], the Selectivity index was above 90. In [1], this compound displayed a 50% cytotoxic concentration (CC50) above 100000 nM. The same compound had an IC50 in the series on Hepatitis C virus of 1100 nM. This compound registered a Ki in series [2] of 320 nM.
Consider `CCC[C@H](NC(=O)[C@@H]1C[C@@H]2CCCC[C@@H]2N1C(=O)[C@@H](NC(=O)[C@@H](NC(=O)c1cccnc1)C1CCCCC1)C(C)(C)C)C(=O)C(=O)NC1CC1`, for which the Selectivity index in [5] is above 58. In [1], the cytotoxic concentration (CC50) is above 100000 nM. Moreover, 1700 nM corresponded to half-maximal inhibition in the series with Hepatitis C virus (IC50). The same compound showed a Ki in [2] of 240 nM.
For `CCC[C@H](NC(=O)[C@@H]1C[C@@H]2CCCC[C@@H]2N1C(=O)[C@@H](NC(=O)[C@@H](NC(=O)c1ccoc1)C1CCCCC1)C(C)(C)C)C(=O)C(=O)NC1CC1`, in that order: above 71, above 100000 nM, 1400 nM and 240 nM.
Take `CCC[C@H](NC(=O)[C@@H]1C[C@@H]2CCCC[C@@H]2N1C(=O)[C@@H](NC(=O)[C@@H](NC(=O)c1cnccn1)C1CCCCC1)C(C)(C)C)C(=O)C(=O)NC1CC1`: the concentration came to 180 nM with Plasma and 360 nM in the series with Liver. Moreover, the Selectivity index in [5] is 43. In [1], this compound showed a CC50 of 47000 nM. The compound further showed an IC50 with Hepatitis C virus of 1100 nM. The Ki in series [2] was found to be 150 nM. Further, the AUC with Mus musculus [3] came out at 1.5 µM·h; with Mus musculus [4], 2.9 µM·h. For the same compound, in [6], the Ratio was determined as 0.33.
Regarding `CCC[C@H](NC(=O)[C@@H]1C[C@@H]2CCCC[C@@H]2N1C(=O)[C@@H](NC(=O)[C@@H](NC(=O)C(=O)NCc1ccccc1)C1CCCCC1)C(C)(C)C)C(=O)C(=O)NC1CC1`, the Selectivity index in series [5] is above 380. Further, in [1], the CC50 is above 100000 nM. This compound came in with an IC50 with Hepatitis C virus of 260 nM. The compound also had a Ki in [2] of 140 nM.
As for `CCC[C@H](NC(=O)[C@@H]1C[C@@H]2CCCC[C@@H]2N1C(=O)[C@@H](NC(=O)[C@@H](NC(=O)c1ccc[nH]1)C1CCCCC1)C(C)(C)C)C(=O)C(=O)NC1CC1`, the results for the concentration with Plasma and in the series with Liver were 40 nM and 170 nM, respectively. Also, the Selectivity index in series [5] was above 201. In [1], the CC50 was above 100000 nM. Further, the half-maximal inhibitory concentration (IC50) with Hepatitis C virus amounted to 500 nM. Besides, the inhibition constant Ki in series [2] came to 90 nM. The AUC in the series with Mus musculus [3] came out at 0.36 µM·h; in the series with Mus musculus [4], 1.3 µM·h. In addition, the Ratio in [6] came out at 0.34.
In [1], `CCC[C@H](NC(=O)[C@@H]1C[C@@H]2CCCC[C@@H]2N1C(=O)[C@@H](NC(=O)[C@H](C1CCCCC1)N1C(=O)c2ccccc2C1=O)C(C)(C)C)C(=O)C(=O)NC1CC1` registered a CC50 above 100000 nM. In the series with Hepatitis C virus, this compound returned an IC50 above 3000 nM. In addition, affinity in [2] was put at a Ki of 370 nM.
In the case of `CCC[C@H](NC(=O)[C@@H]1C[C@@H]2CCCC[C@@H]2N1C(=O)[C@@H](NC(=O)[C@@H](NC(=O)c1cc2cc(F)ccc2[nH]1)C1CCCCC1)C(C)(C)C)C(=O)C(=O)NC1CC1`, in [5], the Selectivity index is above 203. In addition, the CC50 in series [1] is above 100000 nM. The compound further had an IC50 in the series with Hepatitis C virus of 490 nM. Further, the Ki in series [2] came out at 120 nM.
